One test deals with T1, RON (Homo sapiens, UniProt Q04912).
T1 sequence (Q04912 913-1400): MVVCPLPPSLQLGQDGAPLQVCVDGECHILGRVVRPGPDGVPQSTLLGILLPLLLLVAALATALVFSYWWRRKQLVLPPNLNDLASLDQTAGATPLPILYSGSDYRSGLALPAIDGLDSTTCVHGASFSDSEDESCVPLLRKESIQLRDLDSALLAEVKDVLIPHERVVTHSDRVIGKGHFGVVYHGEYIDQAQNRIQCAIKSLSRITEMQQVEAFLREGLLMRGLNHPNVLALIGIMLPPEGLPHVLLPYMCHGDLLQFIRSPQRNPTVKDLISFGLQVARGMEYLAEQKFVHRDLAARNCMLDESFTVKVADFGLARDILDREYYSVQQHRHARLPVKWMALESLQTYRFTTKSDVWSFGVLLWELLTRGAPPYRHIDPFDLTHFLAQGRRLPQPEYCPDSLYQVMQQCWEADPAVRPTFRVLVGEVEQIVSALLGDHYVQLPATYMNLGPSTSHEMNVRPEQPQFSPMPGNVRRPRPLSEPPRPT
As to the kind of experiment: sfRON cell mechanistic assay (HeLa), phosphorylated RON ELISA. The format is cell-based. The note with it: HeLa cells transfected with sfRON; inhibition of phosphorylated RON; four hours incubation; at least duplicate experiments; read-out: sfRON mech IC50. Summed up:
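HeLa cells transiently transfected with sfRON plasmid, then exposed 4 h at 37 °C to a 6-point compound series (typically 10 μM to 3 nM, 0.5% DMSO). Phospho-RON (pY1238/1239) in lysates measured by sandwich ELISA with luminescence. IC50 from 4-parameter fit of percent-of-DMSO-control data, at least duplicate runs.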

A further test deals with MKN45 cells. As to the kind of experiment: MKN45 cell proliferation assay (CellTiter-Glo). The note with it: Homo sapiens, MKN-45, 72 h; MKN45 cell line; 3 days incubation; at least duplicate experiments; read-out: Prolif. IC50. The format is cell-based.

pIC50: −log10 of the molar value.

In the case of `Cc1c(-c2cnc3[nH]cc([C@H](C)c4c(Cl)ccc(F)c4Cl)c3c2)cnn1[C@H]1CC[C@H](O)CC1` [Example 67, trans-4-(4-{3-[(1S)-1-(2,6-Dichloro-3-fluorophenyl)ethyl]-1H-pyrrolo[2,3-b]pyridin-5-yl}-5-methyl-1H-pyrazol-1-yl)cyclohexanol], the pIC50 was 6.00 to 6.70 on RON and no less than 7.30 in the test on MKN45 cells.
For `Cc1nn(C[C@@H](O)CO)c(C)c1-c1cnc2[nH]cc([C@H](C)c3c(OC(F)F)ccc(F)c3Cl)c2c1` [Example 69, (2R)-3-[4-(3-{(1S)-1-[2-Chloro-6-(difluoromethoxy)-3-fluorophenyl]ethyl}-1H-pyrrolo[2,3-b]pyridin-5-yl)-3,5-dimethyl-1H-pyrazol-1-yl]propane-1,2-diol] the same measures were no less than 6.70 and no less than 7.30.
For `Cc1c(-c2cnc3[nH]cc([C@H](C)c4c(OC(F)F)ccc(F)c4Cl)c3c2)cnn1C[C@H](O)CO` [Example 70, (2S)-3-[4-(3-{(1S)-1-[2-Chloro-6-(difluoromethoxy)-3-fluorophenyl]ethyl}-1H-pyrrolo[2,3-b]pyridin-5-yl)-5-methyl-1H-pyrazol-1-yl]propane-1,2-diol] the same measures were no less than 6.70 and no less than 7.30.
For `Cc1nn(C[C@H](O)CO)cc1-c1cnc2[nH]cc([C@H](C)c3c(OC(F)F)ccc(F)c3Cl)c2c1` [Example 71, (2S)-3-[4-(3-{(1S)-1-[2-Chloro-6-(difluoromethoxy)-3-fluorophenyl]ethyl}-1H-pyrrolo[2,3-b]pyridin-5-yl)-3-methyl-1H-pyrazol-1-yl]propane-1,2-diol] the same measures were no less than 6.70 and no less than 7.30.
Consider `CCc1c(-c2cnc3[nH]cc([C@H](C)c4c(OC(F)F)ccc(F)c4Cl)c3c2)cnn1CC(C)(C)O` [Example 72, 1-[4-(3-{(1S)-1-[2-Chloro-6-(difluoromethoxy)-3-fluorophenyl]ethyl}-1H-pyrrolo[2,3-b]pyridin-5-yl)-5-ethyl-1H-pyrazol-1-yl]-2-methylpropan-2-ol], for which the pIC50 at RON is 6.00 to 6.70; in the test with MKN45 cells, 6.70 to 7.30.
In the case of `CCc1nn(CC(C)(C)O)cc1-c1cnc2[nH]cc([C@H](C)c3c(OC(F)F)ccc(F)c3Cl)c2c1` [Example 73, 1-[4-(3-{(1S)-1-[2-Chloro-6-(difluoromethoxy)-3-fluorophenyl]ethyl}-1H-pyrrolo[2,3-b]pyridin-5-yl)-3-ethyl-1H-pyrazol-1-yl]-2-methylpropan-2-ol], the pIC50 was 6.00 to 6.70 at RON and no less than 7.30 with MKN45 cells.
Taken in the same sequence, the figures for `Cc1c(-c2cnc3[nH]cc([C@H](C)c4c(OC(F)F)ccc(F)c4Cl)c3c2)cnn1[C@H]1CC[C@H](O)CC1` [Example 74, trans-4-[4-(3-{(1S)-1-[2-Chloro-6-(difluoromethoxy)-3-fluorophenyl]ethyl}-1H-pyrrolo[2,3-b]pyridin-5-yl)-5-methyl-1H-pyrazol-1-yl]cyclohexanol] were no less than 6.70 and no less than 7.30.
For `Cc1c(-c2cnc3[nH]cc([C@H](C)c4c(OC(F)F)ccc(F)c4Cl)c3c2)cnn1[C@@H]1C[C@@H](O)[C@@H](O)C1` [Example 75, (1R,2S,4S)-4-[4-(3-{(1S)-1-[2-Chloro-6-(difluoromethoxy)-3-fluoro-phenyl]ethyl}-1H-pyrrolo[2,3-b]pyridin-5-yl)-5-methyl-1H-pyrazol-1-yl]cyclopentane-1,2-diol] the same measures were no less than 6.70 and no less than 7.30.
As to `Cc1c(-c2cnc3[nH]cc([C@H](C)c4c(OC(F)F)ccc(F)c4Cl)c3c2)cnn1[C@H]1CC[C@H](C(N)=O)CC1` [Example 76, trans-4-[4-(3-{(1S)-1-[2-Chloro-6-(difluoromethoxy)-3-fluorophenyl]ethyl}-1H-pyrrolo[2,3-b]pyridin-5-yl)-5-methyl-1H-pyrazol-1-yl]cyclohexanecarboxamide], the pIC50 at RON is no less than 6.70; in the test with MKN45 cells it was no less than 7.30.
Regarding `CCc1nn([C@H]2CC[C@H](O)CC2)cc1-c1cnc2[nH]cc([C@H](C)c3c(OC(F)F)ccc(F)c3Cl)c2c1` [Example 77, trans-4-[4-(3-{(1S)-1-[2-Chloro-6-(difluoromethoxy)-3-fluorophenyl]ethyl}-1H-pyrrolo[2,3-b]pyridin-5-yl)-3-ethyl-1H-pyrazol-1-yl]cyclohexanol], the pIC50 at RON is no less than 6.70; with MKN45 cells it was no less than 7.30.
Taken in the same sequence, the figures for `CCc1c(-c2cnc3[nH]cc([C@H](C)c4c(OC(F)F)ccc(F)c4Cl)c3c2)cnn1[C@H]1CC[C@H](O)CC1` [Example 78, trans-4-[4-(3-{(1S)-1-[2-Chloro-6-(difluoromethoxy)-3-fluorophenyl]ethyl}-1H-pyrrolo[2,3-b]pyridin-5-yl)-5-ethyl-1H-pyrazol-1-yl]cyclohexanol] were 6.00 to 6.70 and no less than 7.30.
Consider `Cc1c(-c2cnc3[nH]cc([C@H](C)c4c(OC(F)F)ccc(F)c4Cl)c3c2)cnn1[C@H]1C[C@@](C)(O)C1` [Example 79, cis-3-[4-(3-{(1S)-1-[2-Chloro-6-(difluoromethoxy)-3-fluorophenyl]ethyl}-1H-pyrrolo[2,3-b]pyridin-5-yl)-5-methyl-1H-pyrazol-1-yl]-1-methylcyclobutanol], for which the pIC50 at RON was 6.00 to 6.70; with MKN45 cells, no less than 7.30.
Taken in the same sequence, the figures for `Cc1c(-c2cnc3[nH]cc([C@H](C)c4c(OC(F)F)ccc(F)c4Cl)c3c2)cnn1[C@H]1C[C@@H](O)C1` [Example 81, cis-3-[4-(3-{(1S)-1-[2-Chloro-6-(difluoromethoxy)-3-fluorophenyl]ethyl}-1H-pyrrolo[2,3-b]pyridin-5-yl)-5-methyl-1H-pyrazol-1-yl]cyclobutanol] were 6.00 to 6.70 and no less than 7.30.
For `C[C@H](c1c(OC(F)F)ccc(F)c1Cl)c1c[nH]c2ncc(-c3cnn([C@H]4CC[C@H](O)CC4)c3Cl)cc12` [Example 82, trans-4-[5-Chloro-4-(3-{(1S)-1-[2-chloro-6-(difluoromethoxy)-3-fluorophenyl]ethyl}-1H-pyrrolo[2,3-b]pyridin-5-yl)-1H-pyrazol-1-yl]cyclohexanol] the same measures were 6.00 to 6.70 and no less than 7.30.
For `C[C@H](c1c(OC(F)F)ccc(F)c1Cl)c1c[nH]c2ncc(-c3cnn([C@H]4CC[C@H](O)CC4)c3CO)cc12` [Example 83, trans-4-[4-(3-{(1S)-1-[2-Chloro-6-(difluoromethoxy)-3-fluorophenyl]ethyl}-1H-pyrrolo[2,3-b]pyridin-5-yl)-5-(hydroxymethyl)-1H-pyrazol-1-yl]cyclohexanol], the pIC50 on RON is 6.00 to 6.70; in the test with MKN45 cells, no less than 7.30.
Take `C[C@H](c1c(OC(F)F)ccc(F)c1Cl)c1c[nH]c2ncc(-c3cnn([C@H]4CC[C@H](O)CC4)c3F)cc12` [Example 84, trans-4-[4-(3-{(1S)-1-[2-Chloro-6-(difluoromethoxy)-3-fluorophenyl]ethyl}-1H-pyrrolo[2,3-b]pyridin-5-yl)-5-fluoro-1H-pyrazol-1-yl]cyclohexanol]: the results for the pIC50 on RON and with MKN45 cells were 6.00 to 6.70 and no less than 7.30, respectively.
For `[2H]C([2H])([2H])c1c(-c2cnc3[nH]cc([C@H](C)c4c(OC(F)F)ccc(F)c4Cl)c3c2)cnn1[C@H]1CC[C@H](O)CC1` [Example 85, trans-4-[4-(3-{(1S)-1-[2-Chloro-6-(difluoromethoxy)-3-fluorophenyl]ethyl}-1H-pyrrolo[2,3-b]pyridin-5-yl)-5-(^2H3)methyl-1H-pyrazol-1-yl]cyclohexanol] the same measures were 6.00 to 6.70 and no less than 7.30.
For `Cc1c(-c2cnc3[nH]cc([C@H](C)c4c(OC(F)F)ccc(F)c4Cl)c3c2)cnn1C1CCNCC1` [Example 96, 3-{(1S)-1-[2-Chloro-6-(difluoromethoxy)-3-fluorophenyl]ethyl}-5-[5-methyl-1-(piperidin-4-yl)-1H-pyrazol-4-yl]-1H-pyrrolo[2,3-b]pyridine], the pIC50 on RON is no less than 6.70; in the test with MKN45 cells it was no less than 7.30.
For the compound `CC(=O)N1CCC(n2ncc(-c3cnc4[nH]cc([C@H](C)c5c(OC(F)F)ccc(F)c5Cl)c4c3)c2C)CC1` [Example 97, 1-{4-[4-(3-{(1S)-1-[2-Chloro-6-(difluoromethoxy)-3-fluorophenyl]ethyl}-1H-pyrrolo[2,3-b]pyridin-5-yl)-5-methyl-1H-pyrazol-1-yl]piperidin-1-yl}ethanone], the pIC50 at RON is no less than 6.70; with MKN45 cells it was no less than 7.30.
Taken in the same sequence, the figures for `COc1ccc(F)c(Cl)c1[C@@H](C)c1c[nH]c2ncc(-c3cn([C@H]4CC[C@H](O)CC4)nc3OC)cc12` [Example 99, trans-4-(4-{3-[(1S)-1-(2-chloro-3-fluoro-6-methoxyphenyl)ethyl]-1H-pyrrolo[2,3-b]pyridin-5-yl}-3-methoxy-1H-pyrazol-1-yl)cyclohexanol] were no less than 6.70 and no less than 7.30.
On to `COc1nn([C@H]2CC[C@H](O)CC2)cc1-c1cnc2[nH]cc([C@H](C)c3c(OC(F)F)ccc(F)c3Cl)c2c1` [Example 100, trans-4-[4-(3-{(1S)-1-[2-chloro-6-(difluoromethoxy)-3-fluorophenyl]ethyl}-1H-pyrrolo[2,3-b]pyridin-5-yl)-3-methoxy-1H-pyrazol-1-yl]cyclohexanol], for which the results for the pIC50 on RON and in the test on MKN45 cells were no less than 6.70 and no less than 7.30, respectively.

The values above are taken from patent US8445510B2, “Fused bicyclic kinase inhibitors” (OSI Pharmaceuticals, LLC, priority 2011, dated 2013).
